Source: patent publication US20220193070A1, “METHODS FOR TREATING ABSENCE SEIZURES” (XENON PHARMACEUTICALS INC., priority 2020, published 2022)
Marks after values point to notes of the source that are not given here.

Legend:
[1] = Open-label clinical study: safety, tolerability and questionnaires
absence seizures [2] = assay: Open-label clinical study: absence seizure frequency from patient seizure diaries; assay type: in vivo, human
Description: Seizure frequency is documented via seizure diaries and side effects and safety are closely monitored. This study informs the feasibility and utility of conducting a larger clinical trial.
Objectives: The primary objective is to assess the efficacy, safety and tolerability of flunarizine compared to a baseline period on absence seizures in patients with treatment refractory generalized epilepsy taking a minimum of one anti-seizure medication (ASM).
This is an open-label, single-centre study to evaluate the clinical efficacy, safety and tolerability of flunarizine administered as adjunctive treatment in participants diagnosed with treatment resistant absence epilepsy. The study includes 20 participants.
Inclusion Criteria: Participants eligible for this study meet all of the following criteria: • 1. Participant is 4 to 18 years of age • 2. Participant has treatment resistant absence seizures. Treatment resistant absence seizures are defined as failure to respond to […] appropriate anti-seizure medications (ASMs). […] Participant must currently be taking a minimum of one ASM • 4. Normal development (may have specific learning disabilities and/or ADHD/ADD) • 5. EEG confirmation of absence seizures and EEG within 2 months of screening visit • 6. Absence seizures reported at least 10 times per week • 7. Participants must have no changes in baseline ASMs for 1 month prior to screening period • 8. Participant or caregiver can maintain a seizure diary • 9. Participant is able to swallow capsules • 10. Written informed consent must be provided. Legal guardians of the participants must be able to understand and provide written consent on behalf of the participant, since study participants may be too young to provide informed consent. For participants 7-18 years of age, assent is required along with written informed consent of the caregiver. • 11. The participant is willing and able to attend all study visits • 12. Participant has the ability to speak and read in English • 13. Females of child bearing potential who are sexually active must be willing to use contraceptive methods for the duration of the study and 6 months post last dose of study drug. • 14. Males who are sexually active with females of child bearing potential must be willing to use contraception for the duration of the study and 3 months post last dose of study drug.
The initial dose of flunarizine at Visit 2 is 5 mg/day taken at night. The dose is taken orally as one 5 mg capsule. In order to optimize response to treatment, dose escalation, at the discretion of the investigator, is performed at Visit 3. If the 5 mg/day dose is tolerated by any given participant, the dose is escalated to 10 mg/day taken as two 5 mg capsules. […] The investigator uses discretion to maintain or adjust the dose level based on the study participant's tolerability and clinical response, alongside other medical considerations. If deemed necessary by the investigator, the 10 mg dose is be split into morning and evening doses to reduce minor side effects.
At the screening visit, the seizure history is assessed using detailed parental interviews and chart review. The investigator takes the participant's medical history (including date of seizure onset date of epilepsy diagnosis). The participant's vital signs (temperature, blood pressure and heart rate), height and weight are recorded.

absence seizures [3] = assay: Open-label clinical study: number of absence seizures during EEG; assay type: in vivo, human; parameters: reduction of absence seizures on EEG: concentration or dose not given beside the values
Description: The secondary objectives are to evaluate EEG changes in patients with absence epilepsy; to evaluate changes in quality of life for patients; and to evaluate global impression change and clinical impression of change. The secondary outcome measures include median percent change in the number of absence seizures on EEG, and bursts of spike/wave lasting 2 or more seconds in patients treated with flunarizine compared with the baseline period; Clinical and Patient Global Impression of Change scores during the flunarizine treatment period; median percent change in weekly absence seizure frequency from baseline compared to end of study period; and median percent change in weekly absence seizure frequency from flunarizine treatment period.

Fc1ccc(C(c2ccc(F)cc2)N2CCN(C/C=C/c3ccccc3)CC2)cc1 [Flunarizine, 1-[bis(4-fluorophenyl)methyl]-4-cinnamyl-piperazine]
Depressive symptoms and somnolence ([1]; human, in vivo): not observed in any patient
tolerability ([1]; patients 4 to 18 years, 5 or 10 mg/day oral): well tolerated
side effect ([1]; resulting in medication discontinuation): weight gain as the only side effect in one patient
reduction in diary recorded seizures (absence seizures [2]; 2 of the 3 CAE patients): > 80%
Seizure Frequency at visit 5 (absence seizures [2]; Patient 1, Jeavons, 10 mg daily, current ASMs VPA, CLON, baseline 409 per month): 608
% Reduction in Seizures (absence seizures [2]; Patient 1, Jeavons, 10 mg daily, printed as Increase): ~50%
% Reduction in Seizures (absence seizures [2]; Patient 3, CAE, 10 mg daily): 85%
Seizure Frequency at visit 5 (absence seizures [2]; Patient 3, CAE, 10 mg daily, current ASMs LTG, ESM, ketogenic diet, baseline 41 per month): 6
% Reduction in Seizures (absence seizures [2]; Patient 4, CAE, 10 mg daily): 57%
Seizure Frequency at visit 5 (absence seizures [2]; Patient 4, CAE, 10 mg daily, current ASM LTG, baseline 79 per month): 34
% Reduction in Seizures (absence seizures [2]; Patient 5, CAE, 5 mg daily): 83%
Seizure Frequency at visit 5 (absence seizures [2]; Patient 5, CAE, 5 mg daily, current ASM VPA, baseline 54 per month): 9
reduction in diary recorded seizures (absence seizures [2]; all 3 CAE patients): > 50%
change in seizures (absence seizures [2]; one of the two patients with Jeavons Syndrome): increased seizures
study termination (absence seizures [2]; the other patient with Jeavons Syndrome): terminated within one week due to increase in seizures
response to flunarizine (absence seizures [2]; the two patients with Jeavons Syndrome): did not respond
absence seizures on EEG (absence seizures [3]; 2 of the three CAE subjects): resolution of absence seizures
% Reduction in Seizures (EEG) (absence seizures [3]; Patient 1 (Jeavons)): 11%
Number of Absence Seizures during EEG, Visit 5 (absence seizures [3]; Patient 1 (Jeavons), baseline 9): 8
% Reduction in Seizures (EEG) (absence seizures [3]; Patient 3 (CAE)): 94%
Number of Absence Seizures during EEG, Visit 5 (absence seizures [3]; Patient 3 (CAE), baseline 16): 1
% Reduction in Seizures (EEG) (absence seizures [3]; Patient 4 (CAE)): 100%
Number of Absence Seizures during EEG, Visit 5 (absence seizures [3]; Patient 4 (CAE), baseline 7): 0
% Reduction in Seizures (EEG) (absence seizures [3]; Patient 5 (CAE)): 100%
Number of Absence Seizures during EEG, Visit 5 (absence seizures [3]; Patient 5 (CAE), baseline 5): 0
% Reduction in Seizures (EEG) (absence seizures [3]; Patient 6 (JAE), 10 mg): 50 to 100%***
Number of Absence Seizures during EEG, Visit 5 (absence seizures [3]; Patient 6 (JAE), 10 mg, baseline 6): 3
reduction of absence seizures on EEG (absence seizures [3]; one of the three CAE subjects): 94%
reduction in seizures, EEG data (absence seizures [3]; single JAE subject): 50 to 100%
